Test results from the CheMixHub viscosity set.
“And” between values parts separate entries of the source, which are not always exact repeats. Identical values can stand only once. ± gives the uncertainty stated by the source.

Experiment: xn = mol fraction of the nth substance listed

COc1ccccc1 + c1ccccc1
101.33 kPa
Details	viscosity
293.15 K, x1 = 0.0945	0.7297 ± 0.038 mPa·s
293.15 K, x1 = 0.1951	0.7551 ± 0.04 mPa·s
293.15 K, x1 = 0.2984	0.8001 ± 0.042 mPa·s
293.15 K, x1 = 0.3942	0.8413 ± 0.044 mPa·s
293.15 K, x1 = 0.5178	0.9017 ± 0.047 mPa·s
293.15 K, x1 = 0.6157	0.9434 ± 0.049 mPa·s
293.15 K, x1 = 0.6574	0.9641 ± 0.051 mPa·s
293.15 K, x1 = 0.8116	1.052 ± 0.055 mPa·s
293.15 K, x1 = 0.906	1.097 ± 0.058 mPa·s
298.15 K, x1 = 0.0945	0.6765 ± 0.036 mPa·s
298.15 K, x1 = 0.1	0.635 ± 0.017 mPa·s
298.15 K, x1 = 0.1025	0.6396 ± 0.017 mPa·s
298.15 K, x1 = 0.1951	0.7095 ± 0.037 mPa·s
298.15 K, x1 = 0.2	0.671 ± 0.013 mPa·s and 0.671 ± 0.018 mPa·s
298.15 K, x1 = 0.2004	0.6806 ± 0.018 mPa·s
298.15 K, x1 = 0.2984	0.7437 ± 0.039 mPa·s
298.15 K, x1 = 0.3003	0.7121 ± 0.019 mPa·s
298.15 K, x1 = 0.3942	0.7772 ± 0.041 mPa·s
298.15 K, x1 = 0.4	0.742 ± 0.02 mPa·s
298.15 K, x1 = 0.402	0.7553 ± 0.02 mPa·s
298.15 K, x1 = 0.4985	0.7849 ± 0.021 mPa·s
298.15 K, x1 = 0.5	0.782 ± 0.016 mPa·s and 0.782 ± 0.021 mPa·s
298.15 K, x1 = 0.5178	0.8397 ± 0.044 mPa·s
298.15 K, x1 = 0.6	0.821 ± 0.022 mPa·s
298.15 K, x1 = 0.6157	0.88 ± 0.046 mPa·s
298.15 K, x1 = 0.6574	0.9047 ± 0.048 mPa·s
298.15 K, x1 = 0.699	0.8709 ± 0.023 mPa·s
298.15 K, x1 = 0.8	0.907 ± 0.025 mPa·s
298.15 K, x1 = 0.805	0.9112 ± 0.024 mPa·s
298.15 K, x1 = 0.8116	0.9812 ± 0.051 mPa·s
298.15 K, x1 = 0.9013	0.9506 ± 0.025 mPa·s
303.15 K, x1 = 0.1025	0.6033 ± 0.016 mPa·s
303.15 K, x1 = 0.2004	0.6433 ± 0.017 mPa·s
303.15 K, x1 = 0.3003	0.6712 ± 0.018 mPa·s
303.15 K, x1 = 0.402	0.7045 ± 0.019 mPa·s
303.15 K, x1 = 0.4985	0.738 ± 0.019 mPa·s
303.15 K, x1 = 0.5991	0.7765 ± 0.021 mPa·s
303.15 K, x1 = 0.699	0.8121 ± 0.022 mPa·s
303.15 K, x1 = 0.805	0.8545 ± 0.023 mPa·s
303.15 K, x1 = 0.9013	0.8883 ± 0.024 mPa·s
308.15 K, x1 = 0.1	0.556 ± 0.015 mPa·s
308.15 K, x1 = 0.1025	0.5736 ± 0.015 mPa·s
308.15 K, x1 = 0.2	0.587 ± 0.016 mPa·s
308.15 K, x1 = 0.2004	0.6196 ± 0.016 mPa·s
308.15 K, x1 = 0.3003	0.6447 ± 0.017 mPa·s
308.15 K, x1 = 0.4	0.649 ± 0.018 mPa·s
308.15 K, x1 = 0.402	0.675 ± 0.018 mPa·s
308.15 K, x1 = 0.4985	0.7086 ± 0.019 mPa·s
308.15 K, x1 = 0.5	0.68 ± 0.018 mPa·s
308.15 K, x1 = 0.5991	0.7422 ± 0.02 mPa·s
308.15 K, x1 = 0.6	0.715 ± 0.019 mPa·s
308.15 K, x1 = 0.699	0.7763 ± 0.021 mPa·s
308.15 K, x1 = 0.8	0.785 ± 0.021 mPa·s
308.15 K, x1 = 0.805	0.8167 ± 0.022 mPa·s
308.15 K, x1 = 0.9013	0.8509 ± 0.023 mPa·s
313.15 K, x1 = 0.1025	0.5191 ± 0.014 mPa·s
313.15 K, x1 = 0.2004	0.5555 ± 0.015 mPa·s
313.15 K, x1 = 0.3003	0.5884 ± 0.016 mPa·s
313.15 K, x1 = 0.402	0.6099 ± 0.016 mPa·s
313.15 K, x1 = 0.4985	0.6337 ± 0.017 mPa·s
313.15 K, x1 = 0.5991	0.669 ± 0.018 mPa·s
313.15 K, x1 = 0.699	0.7007 ± 0.018 mPa·s
313.15 K, x1 = 0.805	0.7318 ± 0.019 mPa·s
313.15 K, x1 = 0.9013	0.7626 ± 0.02 mPa·s
318.15 K, x1 = 0.1	0.489 ± 0.013 mPa·s
318.15 K, x1 = 0.2	0.517 ± 0.014 mPa·s
318.15 K, x1 = 0.4	0.57 ± 0.015 mPa·s
318.15 K, x1 = 0.5	0.597 ± 0.016 mPa·s
318.15 K, x1 = 0.6	0.626 ± 0.017 mPa·s
318.15 K, x1 = 0.8	0.684 ± 0.019 mPa·s
323.15 K, x1 = 0.1	0.46 ± 0.012 mPa·s
323.15 K, x1 = 0.2	0.485 ± 0.0097 mPa·s and 0.485 ± 0.013 mPa·s
323.15 K, x1 = 0.4	0.533 ± 0.014 mPa·s
323.15 K, x1 = 0.5	0.559 ± 0.011 mPa·s and 0.559 ± 0.015 mPa·s
323.15 K, x1 = 0.6	0.585 ± 0.016 mPa·s
323.15 K, x1 = 0.8	0.64 ± 0.017 mPa·s

c1ccc2ccccc2c1 + c1ccccc1
Details	viscosity
293.15 K, 101 kPa, x1 = 0.006242	0.653 ± 0.023 mPa·s
293.15 K, 101 kPa, x1 = 0.01216	0.66 ± 0.023 mPa·s
293.15 K, 101 kPa, x1 = 0.02495	0.674 ± 0.024 mPa·s
298.15 K, 101 kPa, x1 = 0.051	0.6565 ± 0.017 mPa·s
298.15 K, 101 kPa, x1 = 0.1121	0.7261 ± 0.019 mPa·s
298.15 K, 101 kPa, x1 = 0.1538	0.7707 ± 0.02 mPa·s
298.15 K, 101 kPa, x1 = 0.1979	0.8263 ± 0.022 mPa·s
298.15 K, 101 kPa, x1 = 0.2398	0.8764 ± 0.023 mPa·s
298.15 K, 101 kPa, x1 = 0.2476	0.8712 ± 0.022 mPa·s
298.15 K, 101 kPa, x1 = 0.2693	0.9178 ± 0.024 mPa·s
298.15 K, 101.33 kPa, x1 = 0.0282	0.6309 ± 0.0063 mPa·s
298.15 K, 101.33 kPa, x1 = 0.069	0.6732 ± 0.0066 mPa·s
298.15 K, 101.33 kPa, x1 = 0.0898	0.6932 ± 0.0068 mPa·s
298.15 K, 101.33 kPa, x1 = 0.1341	0.7423 ± 0.0072 mPa·s
298.15 K, 101.33 kPa, x1 = 0.1587	0.7733 ± 0.0075 mPa·s
298.15 K, 101.33 kPa, x1 = 0.2089	0.833 ± 0.008 mPa·s
298.15 K, 101.33 kPa, x1 = 0.25	0.8712 ± 0.0087 mPa·s
298.15 K, 101.33 kPa, x1 = 0.2533	0.8891 ± 0.0085 mPa·s
303.15 K, 101 kPa, x1 = 0.2476	0.8077 ± 0.02 mPa·s
303.15 K, 101 kPa, x1 = 0.3593	0.9452 ± 0.024 mPa·s
303.15 K, 101.33 kPa, x1 = 0.0282	0.5882 ± 0.0059 mPa·s
303.15 K, 101.33 kPa, x1 = 0.069	0.6269 ± 0.0062 mPa·s
303.15 K, 101.33 kPa, x1 = 0.0898	0.6448 ± 0.0064 mPa·s
303.15 K, 101.33 kPa, x1 = 0.1341	0.6897 ± 0.0068 mPa·s
303.15 K, 101.33 kPa, x1 = 0.1587	0.7181 ± 0.007 mPa·s
303.15 K, 101.33 kPa, x1 = 0.2089	0.7723 ± 0.0075 mPa·s
303.15 K, 101.33 kPa, x1 = 0.25	0.8077 ± 0.0081 mPa·s and 0.8077 ± 0.083 mPa·s
303.15 K, 101.33 kPa, x1 = 0.2533	0.8222 ± 0.0079 mPa·s
303.15 K, 101.33 kPa, x1 = 0.26	0.8211 ± 0.085 mPa·s
303.15 K, 101.33 kPa, x1 = 0.33	0.874 ± 0.09 mPa·s
303.15 K, 101.33 kPa, x1 = 0.36	0.9452 ± 0.0095 mPa·s and 0.9452 ± 0.098 mPa·s
308.15 K, 101 kPa, x1 = 0.2476	0.7485 ± 0.019 mPa·s
308.15 K, 101 kPa, x1 = 0.3593	0.8742 ± 0.022 mPa·s
308.15 K, 101.33 kPa, x1 = 0.25	0.7485 ± 0.0075 mPa·s
308.15 K, 101.33 kPa, x1 = 0.36	0.8742 ± 0.0087 mPa·s
313.15 K, 101 kPa, x1 = 0.006242	0.501 ± 0.02 mPa·s
313.15 K, 101 kPa, x1 = 0.01216	0.505 ± 0.02 mPa·s
313.15 K, 101 kPa, x1 = 0.02495	0.514 ± 0.02 mPa·s
313.15 K, 101 kPa, x1 = 0.2476	0.6983 ± 0.018 mPa·s
313.15 K, 101 kPa, x1 = 0.3593	0.8115 ± 0.02 mPa·s
313.15 K, 101.33 kPa, x1 = 0.0282	0.516 ± 0.0053 mPa·s
313.15 K, 101.33 kPa, x1 = 0.069	0.5478 ± 0.0055 mPa·s
313.15 K, 101.33 kPa, x1 = 0.0898	0.5665 ± 0.0057 mPa·s
313.15 K, 101.33 kPa, x1 = 0.1341	0.6017 ± 0.006 mPa·s
313.15 K, 101.33 kPa, x1 = 0.1587	0.6263 ± 0.0062 mPa·s
313.15 K, 101.33 kPa, x1 = 0.2089	0.6698 ± 0.0066 mPa·s
313.15 K, 101.33 kPa, x1 = 0.25	0.6983 ± 0.007 mPa·s
313.15 K, 101.33 kPa, x1 = 0.2533	0.72 ± 0.007 mPa·s
313.15 K, 101.33 kPa, x1 = 0.36	0.8115 ± 0.0081 mPa·s
318.15 K, 101 kPa, x1 = 0.2476	0.654 ± 0.016 mPa·s
318.15 K, 101 kPa, x1 = 0.3593	0.7546 ± 0.019 mPa·s
318.15 K, 101.33 kPa, x1 = 0.25	0.654 ± 0.0065 mPa·s and 0.654 ± 0.068 mPa·s
318.15 K, 101.33 kPa, x1 = 0.26	0.666 ± 0.069 mPa·s
318.15 K, 101.33 kPa, x1 = 0.33	0.7066 ± 0.073 mPa·s
318.15 K, 101.33 kPa, x1 = 0.36	0.7546 ± 0.0075 mPa·s and 0.7546 ± 0.078 mPa·s
318.15 K, 101.33 kPa, x1 = 0.418	0.817 ± 0.084 mPa·s
323.15 K, 101 kPa, x1 = 0.009498	0.445 ± 0.018 mPa·s
323.15 K, 101 kPa, x1 = 0.02432	0.454 ± 0.018 mPa·s
323.15 K, 101 kPa, x1 = 0.02618	0.456 ± 0.019 mPa·s
323.15 K, 101.33 kPa, x1 = 0.0282	0.4564 ± 0.0048 mPa·s
323.15 K, 101.33 kPa, x1 = 0.069	0.4838 ± 0.005 mPa·s
323.15 K, 101.33 kPa, x1 = 0.0898	0.4993 ± 0.0051 mPa·s
323.15 K, 101.33 kPa, x1 = 0.1341	0.529 ± 0.0054 mPa·s
323.15 K, 101.33 kPa, x1 = 0.1587	0.5509 ± 0.0056 mPa·s
323.15 K, 101.33 kPa, x1 = 0.2089	0.5871 ± 0.0059 mPa·s
323.15 K, 101.33 kPa, x1 = 0.2533	0.6319 ± 0.0063 mPa·s

CC(=O)N(C)c1ccccc1 + c1ccncc1
298.15 K, 101 kPa
Details	viscosity [mPa·s]
x1 = 0.0361	0.967 ± 0.19
x1 = 0.06268	1.022 ± 0.2
x1 = 0.09446	1.082 ± 0.22
